For 27 compounds, Ki results are on record in patent US10174037B2, “Dihydropyrazolopyrimidinone compounds as PDE2 inhibitors” (Merck Sharp & Dohme Corp., priority 2015, dated 2019).

The target in this assay is human PDE2A1 (Homo sapiens (Human), UniProt O00408). Briefly: PDE selectivity IMAP FP assay, human PDE2A1. As to conditions: Human PDE2; Lab B; read-out: Human PDE2 Ki (nM) Lab B. The assay is classed as biochemical. The procedure: Selectivity for PDE2, as compared to other PDE families, was assessed using the IMAP® technology. Human PDE10A2 enzyme was prepared from cytosolic fractions of transiently transfected HEK cells.
A Labcyte POD 810 (Labcyte, Sunnyvale, Calif.) was used to dispense 200 nL from each well of the titration plate to make eleven copies of the assay plate for each titration, one copy for each PDE enzyme. A solution of each enzyme (dilution from aliquots, sufficient to produce 20% substrate conversion) and a separate solution of FAM-labeled cAMP or FAM-labeled cGMP from Molecular Devices (Sunnyvale, Calif., product # R7506 or cGMP#R7508), at a final concentration of 50 nM were made in the assay buffer (10 mM Tris HCl, pH 7.2, 10 mM MgCl2, 0.05% NaN3 0.01% Tween-20, and 1 mM DTT). Note that the substrate for PDE2 is 50 nM FAM cAMP containing 1000 nM of cGMP. The enzyme and the substrate were then added to the assay plates in two consecutive additions of 10 μL and then shaken to mix. The reaction was allowed to proceed at room temperature for 60 minutes. A binding solution was then made from the kit components, comprised of 80% Solution A, 20% Solution B and binding reagent at a volume of 1/600 the total binding solution. The enzymatic reaction was stopped by addition of 60 μL of the binding solution to each well of the assay plate. […] The plates were incubated at room temperature for one hour, then the parallel and perpendicular fluorescence was measured using a Tecan Genios Pro plate reader (Tecan, Switzerland). […] The intrinsic PDE2 inhibitory activity of a compound which may be used in accordance with the present invention may be determined by these assays. […]
The PDE2 Ki is a measure of the ability of the test compound to inhibit the action of the PDE2 enzyme.

In general, Ki refers to the equilibrium dissociation constant of an inhibitor or competing ligand from its target.

Chain of human PDE2A1 (O00408 other isoform, or with tags, fused parts or gaps): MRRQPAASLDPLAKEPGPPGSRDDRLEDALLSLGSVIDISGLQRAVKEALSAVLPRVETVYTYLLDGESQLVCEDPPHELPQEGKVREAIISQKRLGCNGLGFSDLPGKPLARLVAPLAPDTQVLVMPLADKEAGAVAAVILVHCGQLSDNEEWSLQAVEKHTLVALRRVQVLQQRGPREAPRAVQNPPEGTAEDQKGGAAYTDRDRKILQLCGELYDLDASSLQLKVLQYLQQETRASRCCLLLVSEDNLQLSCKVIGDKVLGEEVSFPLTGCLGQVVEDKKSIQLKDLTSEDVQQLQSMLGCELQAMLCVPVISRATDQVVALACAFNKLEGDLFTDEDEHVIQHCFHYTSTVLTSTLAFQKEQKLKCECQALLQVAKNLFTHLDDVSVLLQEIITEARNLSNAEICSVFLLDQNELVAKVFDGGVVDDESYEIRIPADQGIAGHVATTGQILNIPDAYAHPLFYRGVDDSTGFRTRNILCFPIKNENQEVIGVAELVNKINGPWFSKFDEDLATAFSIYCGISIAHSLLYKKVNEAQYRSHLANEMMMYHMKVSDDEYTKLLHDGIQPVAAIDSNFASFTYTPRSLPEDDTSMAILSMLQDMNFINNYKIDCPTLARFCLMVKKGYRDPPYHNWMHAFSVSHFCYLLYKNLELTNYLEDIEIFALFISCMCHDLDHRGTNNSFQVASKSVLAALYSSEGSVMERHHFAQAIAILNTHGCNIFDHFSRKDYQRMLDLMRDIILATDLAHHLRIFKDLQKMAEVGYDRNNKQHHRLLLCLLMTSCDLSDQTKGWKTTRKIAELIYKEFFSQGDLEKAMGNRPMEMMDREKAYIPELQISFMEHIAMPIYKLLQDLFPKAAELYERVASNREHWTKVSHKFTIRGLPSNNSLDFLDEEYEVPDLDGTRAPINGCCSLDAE

For the compound `CC(c1ccc(OC(F)F)cc1)n1nc(C(F)(F)F)c2c(=O)[nH]c(O)nc21` (single isomer, unassigned) [Example 315, (R)- or (S)-1-{1-[4-(Difluoromethoxy)phenyl]ethyl}-6-hydroxy-3-(trifluoromethyl)-1,5-dihydro-4H-pyrazolo[3,4-d]pyrimidin-4-one], the Ki was determined as 629 nM.
In the case of `CC(C)C(c1ccc(C(F)(F)F)cc1)n1nc(C(F)(F)F)c2c(=O)[nH]c(O)nc21` (single isomer, unassigned) [Example 333, (R)- or (S)-6-Hydroxy-1-(2-methyl-1-(4-(trifluoromethyl)phenyl)propyl)-3-(trifluoromethyl)-1H-pyrazolo[3,4-d]pyrimidin-4(5H)-one] it was 134 nM; in that of `CCC(c1ccc(C(F)(F)F)c(F)c1)n1nc(CF)c2c(=O)[nH]c(N(C)C)nc21` (single isomer, unassigned) [Example 223, (S)- or (R)-6-(Dimethylamino)-1-(1-(3-fluoro-4-(trifluoromethyl)phenyl)propyl)-3-(fluoromethyl)-1H-pyrazolo[3,4-d]pyrimidin-4(5H)-one], 1.8 nM.
Take `CC(c1ccc(OC(F)(F)F)cc1F)n1nc(C(F)(F)F)c2c(=O)[nH]c(O)nc21` (single isomer, unassigned) [Example 308, (S)- or (R)-1-{1-[2-Fluoro-4-(trifluoro-methoxy)phenyl]ethyl}-6-hydroxy-3-(trifluoromethyl)-1,5-dihydro-4H-pyrazolo[3,4-d]pyrimidin-4-one]: the Ki stood at 213 nM.
For `CC[C@@H](O)c1nn([C@@H](C)c2ccc(C(F)(F)F)cc2)c2nc(O)[nH]c(=O)c12` (mixture of isomers) [Example 295, (R,S)- and (R,R)- and (S,S)- and (S,R)-6-Hydroxy-3-(1-hydroxypropyl)-1-(1-(4-(trifluoromethyl)phenyl)ethyl)-1H-pyrazolo[3,4-d]pyrimidin-4(5H)-one], the inhibition constant (Ki) was found to be 168 nM.
As to `CC(c1ccc(OC(F)(F)F)c(Cl)c1)n1nc(C(F)(F)F)c2c(=O)[nH]c(O)nc21` (single isomer, unassigned) [Example 321, (R)- or (S)-1-(1-(3-Chloro-4-(trifluoromethoxy)phenyl)ethyl)-6-hydroxy-3-(trifluoromethyl)-1H-pyrazolo[3,4-d]pyrimidin-4(5H)-one], the Ki turned out to be 145 nM.
In the case of `CNc1nc2c(c(CO)nn2C(c2ccc(C(C)(F)F)cc2)C(C)C)c(=O)[nH]1` (single isomer, unassigned) [Example 359] it was 0.33 nM.
The value for `CCC(c1ccc(C(F)(F)F)cc1)n1nc(CO)c2c(=O)[nH]c(N(C)C)nc21` (single isomer, unassigned) [Example 72, (R)- or (S)-6-(Dimethylamino)-3-(hydroxymethyl)-1-(1-(4-(trifluoromethyl)phenyl)propyl)-1H-pyrazolo[3,4-d]pyrimidin-4(5H)-one] was 2.9 nM; that for `CC(c1ccc(OC(F)F)cc1)n1nc(C(F)(F)F)c2c(=O)[nH]c(O)nc21` (single isomer, unassigned) [Example 316, (S)- or (R)-1-{1-[4-(Difluoromethoxy)phenyl]ethyl}-6-hydroxy-3-(trifluoromethyl)-1,5-dihydro-4H-pyrazolo[3,4-d]pyrimidin-4-one] was 6.1 nM; that for `CCC(c1ccc(CC(F)(F)F)cc1)n1nc(CO)c2c(=O)[nH]c(N(C)C)nc21` (single isomer, unassigned) [Example 98, (R)- or (S)-6-(Dimethylamino)-3-(hydroxymethyl)-1-(1-(4-(2,2,2-trifluoroethyl)phenyl)propyl)-1H-pyrazolo[3,4-d]pyrimidin-4(5H)-one] was 1.3 nM.
The value for `CC(c1ccc(C(F)(F)F)c(F)c1)n1nc(C(F)(F)F)c2c(=O)[nH]c(O)nc21` (single isomer, unassigned) [Example 314, (S)- or (R)-1-{1-[3-Fluoro-4-(trifluoromethyl)phenyl]ethyl}-6-hydroxy-3-(trifluoromethyl)-1,5-dihydro-4H-pyrazolo[3,4-d]pyrimidin-4-one] was 106 nM; that for `O=c1[nH]c(O)nc2c1c(C(F)F)nn2C(CC(F)(F)F)c1ccc(C(F)(F)F)cc1` (single isomer, unassigned) [Example 271] was 911 nM.
As to `CCC(c1ccc(C(C)(F)F)cc1)n1nc(CO)c2c(=O)[nH]c(N(C)C)nc21` (single isomer, unassigned) [Example 136, (R)- or (S)-1-(1-(4-(1,1-Difluoroethyl)phenyl)propyl)-6-(dimethylamino)-3-(hydroxymethyl)-1H-pyrazolo[3,4-d]pyrimidin-4(5H)-one], the Ki is 1.9 nM.
Take `CC(c1ccc(C(F)(F)F)cc1)n1nc(CC(F)F)c2c(=O)[nH]c(O)nc21` (single isomer, unassigned) [Example 291]: the Ki amounted to 2.5 nM.
On to `CNc1nc2c(c(CO)nn2C(c2ccc(C(C)(F)F)cc2)C(C)C)c(=O)[nH]1` (single isomer, unassigned) [Example 358], for which the Ki is 5.3 nM.
With `CC(c1ccc(C(F)(F)F)c(Cl)c1)n1nc(C(F)(F)F)c2c(=O)[nH]c(O)nc21` (single isomer, unassigned) [Example 328, (S)- or (R)-1-(1-(3-Chloro-4-(trifluoromethyl)phenyl)ethyl)-6-hydroxy-3-(trifluoromethyl)-1H-pyrazolo[3,4-d]pyrimidin-4(5H)-one], the Ki was determined as 3 nM.
With `CC(c1ccc(OC(F)(F)F)c(Cl)c1)n1nc(C(F)(F)F)c2c(=O)[nH]c(O)nc21` (single isomer, unassigned) [Example 322, (S)- or (R)-1-(1-(3-Chloro-4-(trifluoromethoxy)phenyl)ethyl)-6-hydroxy-3-(trifluoromethyl)-1H-pyrazolo[3,4-d]pyrimidin-4(5H)-one], the Ki is 9.3 nM.
In the case of `CC(c1ccc(C(F)(F)F)cc1)n1nc(CC(F)F)c2c(=O)[nH]c(O)nc21` (single isomer, unassigned) [Example 292] it was 137 nM.
On to `CCC(c1ccc(C(F)(F)F)cc1)n1nc(C(F)(F)F)c2c(=O)[nH]c(O)nc21` (single isomer, unassigned) [Example 331, (R)- or (S)-6-Hydroxy-3-(trifluoromethyl)-1-(1-(4-(trifluoromethyl)phenyl)propyl)-1H-pyrazolo[3,4-d]pyrimidin-4(5H)-one], for which the Ki is 346 nM.
In the case of `CCC(c1ccc(OC(F)F)cc1F)n1nc(CF)c2c(=O)[nH]c(N(C)C)nc21` (single isomer, unassigned) [Example 342, (R)- or (S)-1-(1-(4-(Difluoromethoxy)-2-fluorophenyl)propyl)-6-(dimethylamino)-3-(fluoromethyl)-1H-pyrazolo[3,4-d]pyrimidin-4(5H)-one] it was 0.1 nM; in that of `C[C@@H](c1ccc(C(F)(F)F)cc1)n1nc(CO)c2c(=O)[nH]c(N3CCC3)nc21` [Example 158, (S)-6-(Azetidin-1-yl)-3-(hydroxymethyl)-1-(1-(4-(trifluoromethyl)phenyl)ethyl)-1,5-dihydro-4H-pyrazolo[3,4-d]pyrimidin-4-one], 0.89 nM.
The value for `CN(C)c1nc2c(c(CO)nn2C(c2ccc(C(F)F)cc2)C2CC2)c(=O)[nH]1` (single isomer, unassigned) [Example 63] was 3.2 nM; that for `CC(c1ccc(C(C)(F)F)cc1)n1nc(CO)c2c(=O)[nH]c(N(C)C)nc21` (single isomer, unassigned) [Example 102, (R)- or (S)-1-(1-(4-(1,1-Difluoroethyl)phenyl)ethyl)-6-(dimethylamino)-3-(hydroxymethyl)-1H-pyrazolo[3,4-d]pyrimidin-4(5H)-one] was 9.9 nM.
In the case of `CC(C)C(c1ccc(C(F)(F)F)cc1F)n1nc(CF)c2c(=O)[nH]c(N(C)C)nc21` (single isomer, unassigned) [Example 201, (S)- or (R)-6-(Dimethylamino)-1-(1-(2-fluoro-4-(trifluoromethyl)phenyl)-2-methylpropyl)-3-(fluoromethyl)-1H-pyrazolo[3,4-d]pyrimidin-4(5H)-one] it was 1.2 nM; in that of `CC(c1ccc(OC(F)(F)F)c(F)c1)n1nc(C(F)(F)F)c2c(=O)[nH]c(O)nc21` (single isomer, unassigned) [Example 310, (S)- or (R)-1-{1-[3-Fluoro-4-(trifluoromethoxy)phenyl]ethyl}-6-hydroxy-3-(trifluoromethyl)-1,5-dihydro-4H-pyrazolo[3,4-d]pyrimidin-4-one], 36 nM.
Take `C[C@@H](c1ccc(C(F)(F)F)cc1)n1nc(CO)c2c(=O)[nH]c(N)nc21` [Example 157, 6-Amino-3-(hydroxymethyl)-1-{(1S)-1-[4-(trifluoromethyl)phenyl]ethyl}-1,5-dihydro-4H-pyrazolo[3,4-d]pyrimidin-4-one]: the Ki is 12 nM.
Turning to `C[C@@H](c1ccc(C(F)(F)F)cc1)n1nc(C(F)F)c2c(=O)[nH]c(N3CCC3)nc21` [compound 290, 6-Azetidin-1-yl-3-(difluoromethyl)-1-{(1S)-1-[4-(trifluoromethyl)phenyl]ethyl}-1,5-dihydro-4H-pyrazolo[3,4-d]pyrimidin-4-one], the Ki was determined as 0.26 nM.
